The source of these data is ChEMBL document CHEMBL4739712, “Inhibitors of cyclin-dependent kinases” (2020).

Activity calls are given as the source filed them. No cut-off for these calls is given here.

For assay [1], the target named is T1, Cyclin-dependent kinase 12/13 (Homo sapiens) (UniProt Q14004+Q9NYV4). As to conditions: Jurkat, dose 500.0 nM, time 6.0 hrs.
Assay [2] addresses T1, Cyclin-dependent kinase 12/13 (Homo sapiens). The following applies: Jurkat, dose 500.0 nM, time 4.0 hrs.
For assay [3] the target is unchanged. As to conditions: Jurkat, dose 25.0 nM, time 6.0 hrs.

For the compound `CN(C)C/C=C/C(=O)NC1CCCC(C(=O)Nc2ncc(SCc3ncc(C(C)(C)C)o3)s2)C1` (stereo not given), the inhibition entry in assay [1] is “Active”.
Still for that read-out and setting: as for `C=CC(=O)Nc1ccc(OC(=O)N2CCC[C@@H](Nc3ncc(SCc4ncc(C(C)(C)C)o4)s3)C2)cc1`, the entry is “Active”.
Take `C=CC(=O)Nc1ccc(C(=O)N2CCC[C@@H](Nc3ncc(SCc4ncc(C(C)(C)C)o4)s3)C2)c(C)c1`: in assay [2], the inhibition entry is “Active”.
For the compound `C=CC(=O)Nc1cccc(C(=O)N2CCCC(Nc3ncc(SCc4ncc(C(C)(C)C)o4)s3)C2)c1` (stereo not given), the inhibition result in assay [3] was “inactive”. In addition, the inhibition result in assay [1] is “Active”.
